Series [1] has as its system RAW 264.7 murine macrophage cells. Kind of series: Cytotoxicity, WST-8 assay. The class given is cell-based, mouse. The settings on record: 100 μM, 24 h. The procedure:
(§1) Figure 6 In vitro cytotoxicity of Pro9-3 and their analogues. (A) Dose-response curve represent the hemolytic activity of peptides against sheep red blood cell (sRBC). Concentration-dependent (0–100 μM) toxic effects induced by peptides on (B) RAW 264.7 murine macrophage cells and (C) human kidney (HK)-2 cells for 24 h. Melittin was used as a control. Statistical analysis was performed using two-way analysis of variance (ANOVA) with Dunnett’s comparison test. Values are expressed as mean ± SEM of three independent experiments. * p < 0.05, ** p < 0.01, *** p < 0.001, and ns, non-significant compared with the control.
(§2) RAW 264.7 mouse macrophage cells and Human kidney (HK)-2 cells were obtained from Korean cell line bank (Seoul, Korea) and the cells were maintained in DMEM culture media (Thermo Fischer Scientific Inc., Waltham, MA, USA) supplemented with 10% fetal bovine serum, 1% penicillin/streptomycin at 37 °C in a humidified 5% CO2 incubator. The cytotoxicity of the peptides was analyzed using WST-8 cell proliferation assay (Biomax Co, Ltd., Seoul, Korea), and the experiment was performed according to the kit protocol. Briefly, cells (1 × 10^4) were seeded in 96-well plate and the peptides treatment (0–100 μM) were initiated at 80% confluency and then for 24 h. After incubation, WST-8 reagent was added and the change in absorbance was read at 450 nm against reagent blank, and values are expressed as percent cell survival.

Series [2] is described as follows: In vivo toxicity, serum AST, ALT, BUN. The arrangement: species or system ICR mice. The settings on record: mice, 1 and 5 mg/kg i.p., 24 h. The method, then:
Control mice received phosphate-buffered saline only and the treatment was performed for 24 h. (B) R-Pro9-3D prolonged the survival rate of mice infected with CRAB C0. […] In sepsis model, mice (5 mice per group) were treated with R-Pro9-3D (1 mg/kg) for 1 h and the antiseptic analyses were evaluated after CRAB C0 (6 × 10^6 CFU/mouse, 16 h) infection. (C) R-Pro9-3D restricted the bacterial entry in the lung, liver, and kidneys. The corresponding organ lysates were plated onto agar plates and the total no of bacterial colonies were scored. (D) R-Pro9-3D effectively normalized the endotoxin levels in CRAB C0-infected mice. (E–G) Effect of R-Pro9-3D on serum levels of AST, ALT and BUN. (H–K) R-Pro9-3D inhibited the production of inflammatory cytokines (TNF-α and IL-6) in the serum and lung lysates of CRAB C0-infected mice, as measured by enzyme-linked immunosorbent assay (ELISA). (L) Photomicrograph show the modulatory effect of R-Pro9-3D on neutrophil infiltration in the hematoxylin and eosin (H&E)-stained lung tissues (Magnification 20×, Scale bar 100 μm). […] Values are expressed as mean ± SEM (Five mice per group). […]
The ICR mice (n = 5 per group) were intraperitoneally (i.p.) injected with R-Pro9-3D (1 mg and 5 mg/kg/day in PBS) and the serum levels of AST, ALT, and BUN levels were determined using a standard kit from Asan Pharmaceutical as described previously.

For series [3], the system named is human kidney (HK)-2 cells. Kind of series: Cytotoxicity, WST-8 assay. The series is classed as cell-based. The settings on record: 100 μM, 24 h. The method, then:
as §1, §2
A general note: Tetrazolium assays rely on reduction of a dye to a coloured formazan, in cell work by metabolically active cells.

The subject of series [4] is P. aeruginosa. Put plainly: MIC, broth dilution. The class given is cell-based, Pseudomonas aeruginosa KCCM 11328. The following applies: 16 h, MH media, read-out: Minimal Inhibitory Concentration (MIC). From the text:
Escherichia coli KCTC 1682 was obtained from the Korean Collection for Type Cultures (KCTC) (Jeongeup-si, Korea), Acinetobacter baumannii KCCM 40203, Pseudomonas aeruginosa KCCM 11328 from the Korea Culture Center of Microorganisms (KCCM) (Seoul, Korea). Klebsiella pneumoniae NCCP 16054 were obtained from the National Culture Collection for Pathogens (NCCP) (Osong, Korea). Additionally, two carbapenem-resistant E. coli (CREC E1 and E2), 11 carbapenem-resistant A. baumannii (CRAB C0–C10) and two carbapenem-resistant K. pneumoniae (CRKP K1 and K2) were isolated from the patients, who presented symptoms and signs of infection at Korea University Anam Hospital (Seoul, Korea) (IRB registration no. 2020AN0157, 4 March 2021). CRAB C0–C10 have the OXA-23 gene with carbapenem-resistance.
The minimum inhibitory concentrations (MIC) were determined using broth dilution method. Briefly, all the mentioned bacterial strains were grown overnight at 37 °C by Muller–Hinton (MH) media. […] After 16 h incubation, the bacterial growth was read at 600 nm using a SpectraMAX microplate reader (Molecular Devices, San Jose, CA, USA).
Background: In broth dilution the organism is exposed to a series of concentrations in liquid medium.

Series [5] relates to A. baumannii. The class given is cell-based, Acinetobacter baumannii. The following applies: peptide pre-incubated 6 h at 37 °C. The method, then: All the peptides at their MICs were pre-incubated with proteolytic enzymes such as trypsin and α-chymotrypsin (10,000:1; peptide: enzyme ratio) for 6 h at 37 °C. Then, 100 μL of peptide-protease cocktail was added to the 100 µL bacterial suspension (E. coli, A. baumannii and CRAB C0, 2 × 10^5 CFU/mL) and further incubated for 16 h at 37 °C. Bacterial suspension without peptide and protease served as negative control. The analysis was repeated at three times using independent experiments, and the degree of bacterial growth was measured at 600 nm using a microplate reader.

In brackets after ≈: the same amount, converted by molar mass. Read-outs that look alike come from different tables or passages of the source. Where a SMILES comes first, the peptide text is derived from it. [ ]: non-standard residue; d: D form.

As for `CC[C@@H](C)[C@@H](NC(=O)[C@@H](Cc1c[nH]c2ccccc12)NC(=O)[C@@H](CCCNC(=N)N)NC(=O)[C@H](N)CCCNC(=N)N)C(=O)N[C@H](C)C(=O)N[C@H](CC(C)C)C(=O)N[C@H](Cc1c[nH]c2ccccc12)C(=O)N[C@H](CC(C)C)C(=O)N[C@H](CCCNC(=N)N)C(N)=O` [R-Pro9-3D, rrwialwlr-NH2] (H-[dR][dR][dW][dI][dA][dL][dW][dL][dR]-NH2), the “Toxicity in RAW 264.7 cells” value in series [1] worked out at 20.3%. Moreover, in series [2], the “Serum levels of AST, ALT and BUN” value is “Neither dose of R-Pro9-3D elevated the levels of these enzymes”. The “Toxicity in human kidney (HK)-2 cells” value in series [3] is reported as 9.6%. In addition, the MIC in series [4] came out at 8 µM (≈ 10.1 µg/mL). In addition, the “Minimal Inhibitory Concentration (MIC)” value in series [5] (A. baumannii + Trypsin) and in series [5] (A. baumannii + α-Chymotrypsin) was 4 µM each time.

Values taken from PMC8621208, “Antiseptic 9-Meric Peptide with Potency against Carbapenem-Resistant Acinetobacter baumannii Infection” (International Journal of Molecular Sciences, 2021).
